Calls of active or inactive are those of the source. The calls are words filed in the database; no cut-off is given here.
Columns and labels:
LNCaP [1] = assay: Inhibition of PIP5K1alpha protein expression in human LNCAP cells assessed as reduction in AKT phosphorylation at Ser473 residues at 20 uM incubated for 48 hrs by immunoblot analysis relative to control; assay type: functional
PC-3 [2] = assay: Induction of apoptosis in human PC3 cells assessed as early apoptotic cells at 50 uM incubated for 48 hrs by Annexin-/7-AAD staining based FACS analysis (reference value: 2.53%); assay type: functional
PC-3 [3] = assay: Antiproliferation activity against human PC3 cells assessed as cell proliferation at 50 uM by MTS assay; assay type: functional; conditions: read-out: Activity
PC-3 [4] = assay: Inhibition of PIP5K1alpha protein expression in human PC3 cells assessed as PIP5K1alpha/beta-actin ratio level at 20 uM incubated for 48 hrs by immunoblot analysis (reference value: 9.43); assay type: functional
PC-3 [5] = assay: Inhibition of PIP3 protein expression in human PC3 cells at 50 uM incubated for 48 hrs by immunoblot analysis; assay type: functional, cell-based
LNCaP [6] = assay: Effect on CREB phosphorylation in human LNCAP cells at 20 uM incubated for 48 hrs by immunoblot analysis; assay type: functional, cell-based
LNCaP [7] = assay: Inhibition of cell proliferation in human LNCAP cells assessed as reduction in viable cell count at 10 to 100 uM incubated for 48 hrs; assay type: functional, cell-based
PC-3 [8] = assay: Antiproliferation activity against human PC3 cells assessed as cell proliferation at 10 uM by MTS assay; assay type: functional; conditions: read-out: Activity
PC-3 [9] = assay: Induction of apoptosis in human PC3 cells assessed as viable cells at 50 uM incubated for 48 hrs by Annexin-/7-AAD staining based FACS analysis (reference value: 94.31%); assay type: functional; conditions: PC-3, 48 h, read-out: Activity
[10] = target: T1, MAP/microtubule affinity-regulating kinase 4 (Homo sapiens) (UniProt Q96L34); assay: Binding affinity to human MARK4
T1 sequence (whole entry): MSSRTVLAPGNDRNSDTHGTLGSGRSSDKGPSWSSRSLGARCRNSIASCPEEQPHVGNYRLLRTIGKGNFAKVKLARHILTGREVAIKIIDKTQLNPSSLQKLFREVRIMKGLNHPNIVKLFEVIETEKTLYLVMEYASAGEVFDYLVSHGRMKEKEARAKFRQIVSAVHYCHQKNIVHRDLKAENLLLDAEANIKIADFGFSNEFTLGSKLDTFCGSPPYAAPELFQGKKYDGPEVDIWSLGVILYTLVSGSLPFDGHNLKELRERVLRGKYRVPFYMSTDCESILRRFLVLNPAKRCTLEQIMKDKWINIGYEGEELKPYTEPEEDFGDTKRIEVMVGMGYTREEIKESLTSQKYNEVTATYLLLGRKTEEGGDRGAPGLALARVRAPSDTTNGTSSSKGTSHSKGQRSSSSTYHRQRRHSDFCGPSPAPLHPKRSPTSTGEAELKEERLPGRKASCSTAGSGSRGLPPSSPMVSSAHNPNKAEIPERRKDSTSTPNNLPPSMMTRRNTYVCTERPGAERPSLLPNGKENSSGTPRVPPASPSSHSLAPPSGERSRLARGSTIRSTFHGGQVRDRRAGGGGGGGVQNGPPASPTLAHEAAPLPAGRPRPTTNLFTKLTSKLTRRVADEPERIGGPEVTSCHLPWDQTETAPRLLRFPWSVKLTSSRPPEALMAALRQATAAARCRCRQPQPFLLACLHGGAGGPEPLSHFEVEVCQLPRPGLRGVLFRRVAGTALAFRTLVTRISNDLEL

LNCaP [11] = assay: Reduction in SKP2 protein expression in human LNCAP cells at 20 uM incubated for 48 hrs by immunoblot analysis; assay type: functional, cell-based
U-937 = assay: Inhibition of cell proliferation in human U937 cells assessed as reduction in viable cell count at 10 to 100 uM incubated for 48 hrs; assay type: functional, cell-based
PC-3 [12] = assay: Inhibition of PIP5K1alpha protein expression in human PC3 cells at 20 uM incubated for 48 hrs by immunoblot analysis; assay type: functional, cell-based
LNCaP [13] = assay: Inhibition of AR protein expression in human LNCAP cells at 20 uM incubated for 48 hrs by immunoblot analysis; assay type: functional, cell-based
PC-3 [14] = assay: Induction of morphological changes in human PC3 cells assessed as reduction in cell size at 50 uM incubated for 48 hrs by live cell imaging system based assay; assay type: functional
[15] = Toxicity in mouse xenografted with human PC3 cells assessed as induction of body weight loss at 40 mg/kg dosed every second day starting from day 0 and ending on day 20; assay type: organism-based; conditions: in vivo
LNCaP [16] = assay: Induction of apoptosis in human LNCAP cells assessed as formation of apoptotic bodies at 20 uM incubated for 48 hrs; assay type: functional, cell-based
LNCaP [17] = assay: Inhibition of PIP5K1alpha protein expression in human LNCAP cells at 20 uM incubated for 48 hrs by immunoblot analysis; assay type: functional, cell-based
PC-3 [18] = assay: Inhibition of PIP5K1alpha protein expression in human PC3 cells assessed as reduction in CDK1 phosphorylation at 50 uM incubated for 48 hrs by immunoblot analysis relative to control; assay type: functional, cell-based
[19] = Toxicity in mouse xenografted with human PC3 cells assessed as induction of body weight loss at 40 mg/kg co-treated with 10 mg/kg docetaxel dosed every second day starting from day 0 and ending on day 20; assay type: organism-based; conditions: in vivo
PC-3 [20] = assay: Inhibition of PIP5K1alpha protein expression in human PC3 cells assessed as reduction in CDK1 expression at 50 uM incubated for 48 hrs by immunoblot analysis relative to control; assay type: functional, cell-based
LNCaP [21] = assay: Reduction in CDK1 protein expression in human LNCAP cells at 20 uM incubated for 48 hrs by immunoblot analysis; assay type: functional, cell-based
Caco-2 = assay: Inhibition of cell proliferation in human Caco2 cells assessed as reduction in viable cell count at 10 to 100 uM incubated for 48 hrs; assay type: functional, cell-based
PC-3 [22] = assay: Antitumor activity against human PC3 cells xenografted in mouse assessed as reduction in volume at 40 mg/kg co-treated with 10 mg/kg docetaxel dosed every second day starting from day 0 and ending on day 20 (reference value: 500 mm3); assay type: functional
HCT-116 = assay: Inhibition of cell proliferation in human HCT116 cells assessed as reduction in viable cell count at 10 to 100 uM incubated for 48 hrs; assay type: functional, cell-based
PC-3 [23] = assay: Induction of apoptosis in human PC3 cells assessed as late apoptotic cells at 50 uM incubated for 48 hrs by Annexin-/7-AAD staining based FACS analysis (reference value: 2.83%); assay type: functional
PC-3 [24] = assay: Inhibition of PIP5K1alpha protein expression in human PC3 cells assessed as reduction in cyclin D1 expression at 50 uM incubated for 48 hrs by immunoblot analysis relative to control; assay type: functional, cell-based
PC-3 [25] = assay: Antitumor activity against human PC3 cells xenografted in mouse assessed as reduction in volume at 40 mg/kg dosed every second day starting from day 0 and ending on day 20 relative to control; assay type: functional
MDA-MB-231 = assay: Inhibition of cell proliferation in human MDA-MB-231 cells assessed as reduction in viable cell count at 10 to 100 uM incubated for 48 hrs; assay type: functional, cell-based
LNCaP [26] = assay: Inhibition of PSA protein expression in human LNCAP cells at 20 uM incubated for 48 hrs by immunoblot analysis; assay type: functional, cell-based
PC-3 [27] = assay: Inhibition of cell adhesion in human PC3 cells assessed as cell adhesion relative to control; assay type: functional; parameters: scale not given: the % may be the effect or the level left
LNCaP [28] = assay: Inhibition of PIP5K1alpha protein expression in human LNCAP cells assessed as reduction in AKT phosphorylation at Ser473 residues at 20 uM incubated for 48 hrs by immunofluorescent analysis relative to control; assay type: functional, cell-based
PC-3 [29] = assay: Inhibition of PIP5K1alpha protein expression in human PC3 cells assessed as reduction in FAK phosphorylation incubated for 48 hrs by immunoblot analysis relative to control; assay type: functional, cell-based
[30] = target: Serine/threonine-protein kinase MARK1 (Homo sapiens) (UniProt Q9P0L2); assay: Binding affinity to human MARK1
Sequence of Serine/threonine-protein kinase MARK1 (Homo sapiens) (Q9P0L2 whole entry, looked up): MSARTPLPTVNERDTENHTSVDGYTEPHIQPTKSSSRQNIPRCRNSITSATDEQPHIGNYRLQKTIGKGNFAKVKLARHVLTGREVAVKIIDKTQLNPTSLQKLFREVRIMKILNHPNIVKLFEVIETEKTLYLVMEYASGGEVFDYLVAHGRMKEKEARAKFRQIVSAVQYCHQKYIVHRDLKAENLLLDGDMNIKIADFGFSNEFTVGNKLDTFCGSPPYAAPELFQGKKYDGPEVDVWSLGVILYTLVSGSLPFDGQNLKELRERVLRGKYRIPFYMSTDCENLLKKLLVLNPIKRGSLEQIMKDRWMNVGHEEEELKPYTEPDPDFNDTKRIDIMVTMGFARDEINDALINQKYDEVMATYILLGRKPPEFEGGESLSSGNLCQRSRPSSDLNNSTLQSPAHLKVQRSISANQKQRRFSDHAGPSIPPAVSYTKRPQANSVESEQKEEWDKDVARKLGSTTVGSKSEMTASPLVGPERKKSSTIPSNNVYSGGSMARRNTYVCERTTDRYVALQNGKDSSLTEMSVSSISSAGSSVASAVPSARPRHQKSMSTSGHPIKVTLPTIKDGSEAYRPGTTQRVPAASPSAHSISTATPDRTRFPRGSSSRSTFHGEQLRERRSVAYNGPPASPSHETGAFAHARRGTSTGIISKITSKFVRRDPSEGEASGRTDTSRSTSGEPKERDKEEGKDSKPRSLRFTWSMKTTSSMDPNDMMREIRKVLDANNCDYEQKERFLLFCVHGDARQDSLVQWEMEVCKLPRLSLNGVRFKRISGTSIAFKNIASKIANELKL

[31] = target: Phosphatidylinositol 4-phosphate 5-kinase type-1 alpha (Homo sapiens) (UniProt Q99755); assay: Binding affinity to human PIP5K1alpha
Sequence of Phosphatidylinositol 4-phosphate 5-kinase type-1 alpha (Homo sapiens) (Q99755 whole entry): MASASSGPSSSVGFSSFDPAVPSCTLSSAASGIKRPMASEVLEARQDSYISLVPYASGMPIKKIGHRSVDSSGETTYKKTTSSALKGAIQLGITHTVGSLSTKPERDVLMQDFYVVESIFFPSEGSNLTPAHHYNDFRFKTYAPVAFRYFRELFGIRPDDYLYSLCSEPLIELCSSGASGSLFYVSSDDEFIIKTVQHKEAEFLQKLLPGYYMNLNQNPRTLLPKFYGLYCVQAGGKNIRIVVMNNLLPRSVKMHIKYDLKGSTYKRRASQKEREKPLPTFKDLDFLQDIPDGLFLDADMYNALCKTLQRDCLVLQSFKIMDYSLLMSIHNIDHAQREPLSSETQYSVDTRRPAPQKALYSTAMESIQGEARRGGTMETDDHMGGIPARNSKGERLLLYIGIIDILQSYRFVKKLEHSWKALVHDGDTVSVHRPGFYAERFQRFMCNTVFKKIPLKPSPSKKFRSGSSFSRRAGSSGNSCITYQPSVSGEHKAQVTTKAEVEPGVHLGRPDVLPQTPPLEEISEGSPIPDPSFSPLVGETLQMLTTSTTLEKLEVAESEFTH

PC-3 [32] = assay: Induction of apoptosis in human PC3 cells assessed as necrotic cells at 50 uM incubated for 48 hrs by Annexin-/7-AAD staining based FACS analysis (reference value: 0.32%); assay type: functional
PC-3 [33] = assay: Inhibition of cell invasion in human PC3 cells assessed as cell invasion relative to control; assay type: functional; parameters: scale not given: the % may be the effect or the level left
PC-3 [34] = assay: Induction of morphological changes in human PC3 cells assessed as changes in morphology at 50 uM incubated for 48 hrs by live cell imaging system based assay; assay type: functional
PC-3 [35] = assay: Inhibition of PIP5K1alpha protein expression in human PC3 cells assessed as reduction in cyclin E1 expression at 50 uM incubated for 48 hrs by immunoblot analysis relative to control; assay type: functional, cell-based
PC-3 [36] = assay: Inhibition of PIP5K1alpha protein expression in human PC3 cells assessed as reduction in cyclin A2 expression at 50 uM incubated for 48 hrs by immunoblot analysis relative to control; assay type: functional, cell-based
CWR22R = assay: Antiproliferation activity against human 22Rv1 cells assessed as cell proliferation at 10 to 50 uM by MTS assay; assay type: functional, cell-based
PC-3 [37] = assay: Inhibition of PIP5K1alpha protein expression in human PC3 cells assessed as AKT phosphorylation at Ser473 residues at 50 uM incubated for 48 hrs by immunoblot analysis relative to control; assay type: functional; parameters: scale not given: the % may be the effect or the level left
PC-3 [38] = assay: Antiproliferation activity against human PC3 cells assessed as cell proliferation at 20 uM by MTS assay; assay type: functional; conditions: read-out: Activity
PC-3 [39] = assay: Induction of cell cycle arrest in human PC3 cells assessed as change in accumulation at G2/M phase at 50 uM incubated for 48 hrs by flow cytometry relative to control; assay type: functional
LNCaP [40] = assay: Increase in p27 protein expression in human LNCAP cells at 20 uM incubated for 48 hrs by immunoblot analysis; assay type: functional, cell-based
PC-3 [41] = assay: Inhibition of PKAR1alpha protein expression in human PC3 cells at 20 uM incubated for 48 hrs by immunoblot analysis; assay type: functional, cell-based
PC-3 [42] = assay: Inhibition of PIP5K1alpha protein expression in human PC3 cells assessed as reduction in cyclin B1 expression at 50 uM incubated for 48 hrs by immunoblot analysis relative to control; assay type: functional, cell-based
LNCaP [43] = assay: Induction of apoptosis in human LNCAP cells assessed as formation of fragmented nucleus at 20 uM incubated for 48 hrs; assay type: functional, cell-based
PC-3 [44] = assay: Inhibition of PIP5K1alpha protein expression in human PC3 cells assessed as reduction in AKT phosphorylation at Ser473 residues at 50 uM incubated for 48 hrs by immunoblot analysis relative to control; assay type: functional, cell-based

CN1CC(=O)N2[C@H](c3c[nH]c4ccc(Cl)cc34)c3cc4c(cc3C[C@H]2C1=O)OCO4
inhibition at 20 µM (LNCaP [1]): 75.5%
Activity (PC-3 [2]): 9.55%
growth at 50 µM (PC-3 [3]): 21.6%
Ratio (PC-3 [4]): 2.01
Activity (PC-3 [5]): Active
Activity (LNCaP [6]): inactive
inhibition (LNCaP [7]): Active
growth at 10 µM (PC-3 [8]): 58.8%
viability at 50 µM (PC-3 [9]): 80.2%
Activity [10]: Active
Activity (LNCaP [11]): Active
inhibition (U-937): Active
inhibition (PC-3 [12]): Active
inhibition (LNCaP [13]): Active
Activity (PC-3 [14]): Active
Activity [15]: Non-Toxic
Activity (LNCaP [16]): Active
inhibition (LNCaP [17]): Active
inhibition (PC-3 [18]): Active
Activity [19]: Non-Toxic
inhibition (PC-3 [20]): Active
Activity (LNCaP [21]): Active
inhibition (Caco-2): Active
Activity (PC-3 [22]): 36 mm3
inhibition (HCT-116): Active
Activity (PC-3 [23]): 9.42%
inhibition (PC-3 [24]): Active
Activity (PC-3 [25]): 458 mm3
inhibition (MDA-MB-231): Active
inhibition (LNCaP [26]): Active
Activity (PC-3 [27]): 38.82%
inhibition (LNCaP [28]): Active
inhibition (PC-3 [29]): Dose-dependent effect
Activity [30]: Active
Activity [31]: Active
Activity (PC-3 [32]): 0.8%
Activity (PC-3 [33]): 55.96%
Activity (PC-3 [34]): Active
inhibition (PC-3 [35]): Active
inhibition (PC-3 [36]): Active
Activity (CWR22R): Active
Activity (PC-3 [37]): 29.77%
growth at 20 µM (PC-3 [38]): 48.6%
Activity (PC-3 [39]): 4.96%
Activity (LNCaP [40]): Active
inhibition (PC-3 [41]): inactive
inhibition (PC-3 [42]): Active
Activity (LNCaP [43]): Active

COc1cc([C@@H]2c3cc4c(cc3[C@@H](O[C@@H]3O[C@@H]5CO[C@@H](C)O[C@H]5[C@H](O)[C@H]3O)[C@H]3COC(=O)[C@H]23)OCO4)cc(OC)c1O
inhibition (LNCaP [1]): inactive
Activity (LNCaP [6]): inactive
inhibition (PC-3 [44]): inactive

— ChEMBL document CHEMBL4419175, “Compositions for treatment, diagnosis and prognosis of diseases” (2016)
